ChEMBL document CHEMBL4417631, “Oral peptide inhibitors of interleukin-23 receptor and their use to treat inflammatory bowel diseases” (2017)
Where a SMILES comes first, the peptide text is derived from it.

Each compound was assayed against T1, Interleukin-23 receptor (Homo sapiens, UniProt Q5VWK5) (assay: Inhibition of interleukin-23 binding to human interleukin-23 receptor incubated for 2 hrs by competitive binding ELISA).
T1 sequence (Q5VWK5 whole entry): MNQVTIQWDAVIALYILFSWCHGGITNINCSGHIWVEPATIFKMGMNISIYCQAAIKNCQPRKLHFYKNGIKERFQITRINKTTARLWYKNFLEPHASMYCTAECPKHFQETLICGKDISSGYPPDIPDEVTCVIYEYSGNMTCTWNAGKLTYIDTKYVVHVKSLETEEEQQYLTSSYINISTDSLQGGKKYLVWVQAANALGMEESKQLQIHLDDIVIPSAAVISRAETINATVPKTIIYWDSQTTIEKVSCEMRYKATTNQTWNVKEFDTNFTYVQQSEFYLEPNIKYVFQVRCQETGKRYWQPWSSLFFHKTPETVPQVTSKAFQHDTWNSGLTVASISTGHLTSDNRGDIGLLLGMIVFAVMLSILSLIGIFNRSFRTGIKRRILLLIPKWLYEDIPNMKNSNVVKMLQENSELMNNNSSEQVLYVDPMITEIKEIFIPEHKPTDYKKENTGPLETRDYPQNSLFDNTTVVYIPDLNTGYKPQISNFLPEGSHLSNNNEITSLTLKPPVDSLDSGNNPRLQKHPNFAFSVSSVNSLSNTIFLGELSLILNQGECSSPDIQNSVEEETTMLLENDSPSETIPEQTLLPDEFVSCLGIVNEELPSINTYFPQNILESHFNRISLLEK

Point of comparison: `CC(=O)N[C@@H](CS)C(=O)N[C@@H](CCC(N)=O)C(=O)N[C@H](C(=O)N[C@@H](Cc1c[nH]c2ccccc12)C(=O)N[C@@H](CCC(N)=O)C(=O)N[C@@H](CS)C(=O)N[C@@H](Cc1ccc(O)cc1)C(=O)N[C@@H](Cc1c[nH]c2ccccc12)C(=O)N[C@@H](CCCNC(=N)N)C(=O)N[C@@H](CCCNC(=N)N)CC(=O)N[C@H](C(=O)N[C@@H](CC(N)=O)C(=O)NCC(=O)NCCOCC(=O)N[C@H](CCCCN)C(N)=O)C(C)C)[C@@H](C)O`, IC50 0.922 µM. Against it:
- C[C@H](N)C(=O)N[C@@H](C)C(=O)N[C@@H](CC(=O)O)C(=O)N[C@@H](Cc1c[nH]c2ccccc12)C(=O)N[C@@H](CS)C(=O)N[C@@H](C)C(=O)N[C@@H](Cc1ccc(O)cc1)C(=O)N[C@@H](Cc1c[nH]c2ccccc12)C(=O)N[C@@H](CS)C(=O)N[C@H](C(=O)N[C@@H](Cc1ccccc1)C(=O)NCC(N)=O)[C@@H](C)O (H-AADWCAYWCTFG-NH2) — higher, > 1 µM
- CC(C)[C@H](NC(=O)[C@H](Cc1c[nH]c2ccccc12)NC(=O)[C@H](CC(=O)O)NC(=O)[C@H](C)NC(=O)[C@@H](N)CS)C(=O)N[C@@H](CS)C(=O)N[C@@H](Cc1ccc(O)cc1)C(=O)N[C@@H](Cc1c[nH]c2ccccc12)C(N)=O — higher, > 1 µM
- CC(=O)N[C@@H](CS)C(=O)N[C@@H](CCC(N)=O)C(=O)N[C@@H](CC(=O)O)C(=O)N[C@@H](Cc1c[nH]c2ccccc12)C(=O)N[C@@H](CCC(N)=O)C(=O)N[C@@H](CS)C(=O)N[C@@H](Cc1ccc(O)cc1)C(=O)N[C@@H](Cc1c[nH]c2ccccc12)C(=O)N[C@@H](CCCNC(=N)N)C(=O)N[C@@H](CCC(=O)O)C(=O)N[C@@H](CC(N)=O)C(=O)NCC(=O)NCCOCC(=O)N[C@H](CCCCN)C(N)=O — lower, < 0.5 µM
- CC(=O)NCC(=O)NCC(=O)NCC(=O)N[C@@H](CCC(=O)O)C(=O)N[C@@H](CS)C(=O)N[C@@H](CCC(=O)O)C(=O)N[C@@H](CC(N)=O)C(=O)N[C@@H](Cc1c[nH]c2ccccc12)C(=O)N[C@@H](CCC(=O)O)C(=O)N[C@@H](CS)C(=O)N[C@@H](Cc1ccc(O)cc1)C(=O)N[C@@H](Cc1c[nH]c2ccccc12)C(=O)N[C@@H](Cc1cnc[nH]1)C(=O)N[C@H](C(=O)N[C@@H](Cc1ccccc1)C(=O)NCC(N)=O)[C@@H](C)O (Ac-GGGECENWECYWHTFG-NH2) — not separable, 0.5 to 1 µM
- CC(C)[C@H](NC(=O)[C@H](Cc1c[nH]c2ccccc12)NC(=O)[C@H](CC(=O)O)NC(=O)[C@H](C)NC(=O)[C@@H](N)CS)C(=O)N[C@@H](CS)C(=O)N[C@@H](Cc1ccc(O)cc1)C(=O)N[C@@H](Cc1cccc2ccccc12)C(=O)N(C)[C@@H](Cc1cnc[nH]1)C(=O)N[C@H](C(=O)N[C@@H](Cc1ccccc1)C(=O)O)[C@@H](C)O — higher, > 1 µM
- CC(C)[C@H](NC(=O)[C@H](Cc1c[nH]c2ccccc12)NC(=O)[C@H](CC(=O)O)NC(=O)[C@H](C)NC(=O)[C@@H](N)CS)C(=O)N[C@@H](CS)C(=O)N[C@@H](Cc1ccc(O)cc1)C(=O)N[C@@H](Cc1cccc2ccccc12)C(=O)N[C@@H](Cc1cnc[nH]1)C(=O)N[C@H](C(=O)N(C)[C@@H](Cc1ccccc1)C(N)=O)[C@@H](C)O — higher, > 1 µM
- CC(C)[C@H](NC(=O)[C@H](Cc1c[nH]c2ccccc12)N(C)C(=O)[C@H](CC(=O)O)NC(=O)[C@H](C)NC(=O)[C@@H](N)CS)C(=O)N[C@@H](CS)C(=O)N[C@@H](Cc1ccc(O)cc1)C(=O)N[C@@H](Cc1cccc2ccccc12)C(=O)N[C@@H](Cc1cnc[nH]1)C(=O)N[C@H](C(=O)N[C@@H](Cc1ccccc1)C(=O)O)[C@@H](C)O — higher, > 1 µM
- C[C@H](NC(=O)[C@@H](N)CS)C(=O)N[C@@H](CC(=O)O)C(=O)N[C@@H](Cc1c[nH]c2ccccc12)C(=O)N[C@@H](CS)C(=O)N[C@@H](CS)C(=O)N[C@@H](Cc1ccc(O)cc1)C(=O)N[C@@H](Cc1c[nH]c2ccccc12)C(=O)N[C@@H](CS)C(=O)N[C@H](C(=O)N[C@@H](Cc1ccccc1)C(=O)NCC(N)=O)[C@@H](C)O (H-CADWCCYWCTFG-NH2) — higher, > 1 µM
- CC(=O)N[C@@H](CS)C(=O)N[C@@H](CCC(N)=O)C(=O)N[C@H](C(=O)N[C@@H](Cc1c[nH]c2ccccc12)C(=O)N[C@@H](CCC(N)=O)C(=O)N[C@@H](CS)C(=O)N[C@@H](Cc1ccc(O)cc1)C(=O)N[C@@H](CCc1ccccc1)CC(=O)N[C@@H](CCCNC(=N)N)C(=O)N[C@H](C(=O)N[C@@H](CC(N)=O)C(=O)NCC(=O)NCCOCC(=O)N[C@H](CCCCN)C(N)=O)C(C)C)[C@@H](C)O — higher, > 30 µM
- CC(=O)N[C@@H](CS)C(=O)N[C@H](C(=O)N[C@H](C(=O)N[C@@H](Cc1c[nH]c2ccccc12)C(=O)N[C@@H](CCC(=O)O)C(=O)N[C@@H](CS)C(=O)N[C@@H](Cc1ccc(O)cc1)C(=O)N[C@@H](Cc1c[nH]c2ccccc12)C(=O)N[C@@H](Cc1cnc[nH]1)C(=O)N[C@@H](CCC(=O)O)C(=O)N[C@@H](Cc1ccccc1)C(=O)NCC(N)=O)[C@@H](C)O)[C@@H](C)O (Ac-CTTWECYWHEFG-NH2) — lower, < 0.5 µM
- CC(C)[C@H](NC(=O)[C@H](Cc1c[nH]c2ccccc12)NC(=O)[C@H](CC(=O)O)NC(=O)[C@H](C)NC(=O)[C@@H](N)CS)C(=O)N[C@@H](CS)C(=O)N[C@@H](Cc1ccc(O)cc1)C(=O)N[C@@H](Cc1cccc2ccccc12)C(=O)N[C@@H](Cc1cnc[nH]1)C(=O)N[C@H](C(=O)N[C@@H](Cc1ccccc1)C(=O)NCC(N)=O)[C@@H](C)O — not separable, 0.5 to 1 µM
- CC(=O)N[C@H]1CCSC[C@@H](C(=O)N[C@@H](Cc2ccc(OCCN)cc2)C(=O)N[C@@H](Cc2ccc3ccccc3c2)C(=O)N[C@@](C)(CCCCN)C(=O)N[C@@H](CCC(=O)O)C(=O)N[C@@H](CC(N)=O)C(=O)NCC(N)=O)NC(=O)[C@H](CCC(N)=O)NC(=O)[C@H](c2ccc(Cl)c(Cl)c2)NC(=O)[C@H]([C@@H](C)O)NC(=O)[C@H](CCC(N)=O)NC1=O — higher, > 3 µM
- CC(=O)N[C@@H](C)C(=O)N[C@H](C(=O)N[C@@H](CC(=O)O)C(=O)N[C@@H](Cc1c[nH]c2ccccc12)C(=O)N[C@H](C(=O)N[C@H](C(=O)N[C@@H](Cc1ccc(O)cc1)C(=O)N[C@@H](Cc1c[nH]c2ccccc12)C(=O)N[C@@H](CCCN)C(=O)N[C@@H](CN)C(=O)N[C@@H](Cc1ccccc1)C(=O)NCC(=O)NCCOCC(=O)N[C@H](CCCCN)C(N)=O)C(C)(C)S)C(C)C)C(C)(C)S — higher, > 30 µM
- CC(=O)NCCCC[C@H](NC(=O)[C@](C)(CCCCN)NC(=O)[C@H](Cc1ccc2ccccc2c1)NC(=O)[C@H](Cc1ccc(O)cc1)NC(=O)[C@@H]1CSCC[C@H](NC(C)=O)C(=O)N[C@@H](CCC(N)=O)C(=O)N[C@@H]([C@@H](C)O)C(=O)N[C@@H](Cc2c[nH]c3ccccc23)C(=O)N[C@@H](CCC(N)=O)C(=O)N1)C(=O)N[C@@H](CC(N)=O)C(=O)NCC(=O)NCC(=O)N[C@@H](CCC(=O)O)C(N)=O — lower, 0.025 to 0.1 µM
- CC(=O)N[C@@H](CS)C(=O)N[C@@H](C)C(=O)N[C@@H](CC(=O)O)C(=O)N[C@@H](Cc1c[nH]c2ccccc12)C(=O)N[C@H](C(=O)N[C@@H](CS)C(=O)N[C@@H](Cc1ccc(O)cc1)C(=O)N[C@@H](Cc1ccc(-c2ccccc2)cc1)C(=O)N[C@@H](Cc1cnc[nH]1)C(=O)N[C@H](C(=O)N[C@@H](Cc1ccccc1)C(=O)NCC(=O)NCCOCC(=O)N[C@H](CCCCN)C(N)=O)[C@@H](C)O)C(C)C — higher, > 1 µM
- CC(=O)NC1C/C=C\CCC(C(=O)N[C@@H](Cc2ccc(O)cc2)C(=O)N[C@@H](Cc2c[nH]c3ccccc23)C(=O)N[C@@H](CCCNC(=N)N)C(=O)N[C@@H](CCCCN)C(=O)N[C@@H](Cc2ccccc2)C(=O)NCC(=O)NCCOCC(=O)N[C@H](CCCCN)C(N)=O)NC(=O)[C@H](CCC(N)=O)NC(=O)[C@H](Cc2c[nH]c3ccccc23)NC(=O)[C@H]([C@@H](C)O)NC(=O)[C@H](CCCNC(=N)N)NC1=O (stereo partly specified) — not separable, 0.1 to 1 µM
- CC(=O)N[C@@H](CCC(N)=O)C(=O)N[C@H](C(=O)N[C@@H](Cc1c[nH]c2ccccc12)C(=O)N[C@@H](CCC(N)=O)C(=O)N[C@@H](CS)C(=O)N[C@@H](Cc1ccc(O)cc1)C(=O)N[C@@H](Cc1c[nH]c2ccccc12)C(=O)N(C)[C@@H](CC(C)C)C(=O)N[C@@H](CCC(=O)O)C(=O)N[C@@H](CC(N)=O)C(=O)NCC(N)=O)[C@@H](C)O — higher, > 6 µM
- NC(=O)CC[C@H](NC(=O)[C@@H](N)CS)C(=O)N[C@@H](CO)C(=O)N[C@@H](Cc1c[nH]c2ccccc12)C(=O)N[C@@H](CCC(=O)O)C(=O)N[C@@H](CS)C(=O)N[C@@H](Cc1ccc(O)cc1)C(=O)N[C@@H](Cc1c[nH]c2ccccc12)C(=O)N[C@@H](Cc1cnc[nH]1)C(=O)N[C@@H](Cc1ccc(O)cc1)C(=O)N[C@@H](Cc1ccc(O)cc1)C(=O)NCC(N)=O (H-CQSWECYWHYYG-NH2) — higher, > 1 µM
- CC(=O)N[C@@H](CS)C(=O)N[C@@H](C)C(=O)N[C@@H](CC(=O)O)C(=O)N[C@@H](Cc1c[nH]c2ccccc12)C(=O)N[C@H](C(=O)N[C@@H](CS)C(=O)N[C@@H](Cc1ccc(O)cc1)C(=O)N[C@@H](Cc1c[nH]c2ccccc12)C(=O)N[C@@H](Cc1cnc[nH]1)C(=O)N[C@@H](CCCNC(=N)N)C(=O)N[C@@H](CS)C(=O)NCC(=O)N[C@@H](Cc1c[nH]c2ccccc12)C(=O)N[C@@H](Cc1c[nH]c2ccccc12)C(=O)NCC(=O)N[C@@H](CS)C(N)=O)C(C)C (Ac-CADWVCYWHRCGWWGC-NH2) — higher, > 1 µM
- CC(C)[C@H](NC(=O)[C@H](Cc1c[nH]c2ccccc12)NC(=O)[C@H](CC(=O)O)NC(=O)[C@H](C)NC(=O)[C@@H](N)CS)C(=O)N[C@@H](CS)C(=O)N[C@@H](Cc1ccc(O)cc1)C(=O)N[C@@H](Cc1ccc2ccccc2c1)C(=O)N[C@@H](Cc1cnc[nH]1)C(=O)N[C@H](C(=O)N[C@@H](Cc1ccccc1)C(=O)NCC(N)=O)[C@@H](C)O — not separable, 0.5 to 1 µM
